We go through 7 compounds from patent US9328138B2 (priority 2011, dated 2016).

For data set [1] the following is noted: amide bond, 18-membered ring.
The target of data set [2] is T1, HCV genotype 1b (BK) NS3 modified enzyme with a R155K mutation (Hepatitis C virus genotype 1b, UniProt P26663, R1181K).
T1 construct: HCV genotype 1b (BK) NS3 modified enzyme
Nature of the data set: HCV NS3 protease time-resolved fluorescence (TRF) assay, genotype 1b R155K. The settings on record: Ki 1b R155K. Format: biochemical. In short, it runs like this:
(§1)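 IC50 values derive from 4-parameter fitting of TRF signal after a 6 h room-temperature cleavage of 25 nM peptide substrate by NS3/NS4A that had been pre-incubated 10 min with compound.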

Data set [3] has as its target HCV NS3 protease genotype 3a (3A-1) (Hepatitis C virus genotype 3a, UniProt Q81258). Description: HCV NS3 protease time-resolved fluorescence (TRF) assay, genotype 3a. Format: biochemical. As to conditions: Ki 3a. In short, it runs like this: as §1

Where two headings read alike, the source gives them in different places.

For the setting “from C=CCC[C@@H]1CCC[C@H]1OC(=O)N[C@H](C(=O)N1C[C@H](Oc2nc3ccccc3c(OCC)c2CC=C)C[C@H]1C(=O)OC)C1CCCC1, rcm bond, Zhan catalyst 1B, 1,2-dichloroethane, 6.79 mM, 25.0 °C, 4.0 h”, `CCOc1c2c(nc3ccccc13)O[C@@H]1C[C@@H](C(=O)OC)N(C1)C(=O)[C@H](C1CCCC1)NC(=O)O[C@@H]1CCC[C@H]1CCC=CC2` had a ring closure, yield of all isomers of 79.2%.
`COC(=O)[C@@H]1C[C@@H]2CN1C(=O)[C@H](C1(C)CCCCC1)NC(=O)O[C@@H]1C[C@H]1CCCC#Cc1c(nc3ccccc3c1OCc1ccccc1)O2` showed a ring closure, isolated yield in data set [1] (from COC(=O)[C@@H]1C[C@@H](Oc2nc3ccccc3c(OCc3ccccc3)c2C#CCCC[C@@H]2C[C@H]2OC(=O)N[C@H](C(=O)O)C2(C)CCCCC2)CN1, HATU/DIEA, DMF, 50.0 mM) of 58.8%. For the same compound, the ring closure, yield of all isomers (from COC(=O)[C@@H]1C[C@@H](Oc2nc3ccccc3c(OCc3ccccc3)c2C#CCCC[C@@H]2C[C@H]2OC(=O)N[C@H](C(=O)O)C2(C)CCCCC2)CN1, amide bond, HATU, DMF, 50.0 mM, 25.0 °C, 3.0 h) came to 58.8%.
`CCOC(=O)[C@@]12C[C@H]1/C=C\CCCCC[C@@H]1NC(=O)O[C@@H]3C[C@H]3CCC/C=C/c3c(nc4ccccc4c3OCCN3CCCCC3)O[C@@H]3C[C@@H](C(=O)N2)N(C3)C1=O` gave a ring closure, yield of all isomers (from CCOC(=O)[C@@]12C[C@H]1/C=C\CCCCC[C@H](NC(=O)O[C@@H]1C[C@H]1CCC/C=C/B1OC(C)(C)C(C)(C)O1)C(=O)N1C[C@H](Oc3nc4ccccc4c(OCCN4CCCCC4)c3Br)C[C@H]1C(=O)N2, cc_pd bond, Pd(OAc)2/cataCXium A, Cs2CO3, dioxane, 36.6 mM, 100.0 °C, 1.0 h) of 64.1%.
In data set [1] (HATU, 2 steps), `COC(=O)[C@@H]1C[C@@H]2CN1C(=O)[C@H](C(C)(C)C)NC(=O)O[C@H]1C[C@@H]1CCCCCc1c(nc3ccncc3c1OC1CCN(C)CC1)O2` displayed a ring closure, isolated yield of 44.7%. Moreover, where the note is “from COC(=O)[C@@H]1C[C@@H](Oc2nc3ccncc3c(OC3CCN(C)CC3)c2CCCCC[C@@H]2C[C@H]2OC(=O)N[C@H](C(=O)OC(C)(C)C)C(C)(C)C)CN1C(=O)OC(C)(C)C, amide bond, HATU, DMF, 51.5 mM, 25.0 °C, 1.5 h, 2 steps”, the ring closure, yield of all isomers worked out at 44.7%.
With `CCOC(=O)[C@@]12C[C@H]1C=CCCCCC[C@H](NC(=O)OC(C)(C)C)C(=O)N1C[C@@H](OS(=O)(=O)c3ccc(Br)cc3)C[C@H]1C(=O)N2C(=O)OC(C)(C)C`, where the note is “from C=CCCCCC[C@H](NC(=O)OC(C)(C)C)C(=O)N1C[C@@H](OS(=O)(=O)c2ccc(Br)cc2)C[C@H]1C(=O)N(C(=O)OC(C)(C)C)[C@]1(C(=O)OCC)C[C@H]1C=C, rcm bond, Zhan catalyst 1B, 1,2-dichloroethane, 10.0 mM, 75.0 °C, 2.0 h”, the ring closure, yield of all isomers is 84.8%.
As for `COC(=O)[C@@H]1C[C@@H]2CN1C(=O)[C@H](C1Cc3ccccc3C1)NC(=O)O[C@@H]1C[C@H]1CCCC#Cc1c(nc3ccccc3c1OCc1ccccc1)O2`, the ring closure, isolated yield in data set [1] (from COC(=O)[C@@H]1C[C@@H](Oc2nc3ccccc3c(OCc3ccccc3)c2C#CCCC[C@@H]2C[C@H]2OC(=O)N[C@H](C(=O)O)C2Cc3ccccc3C2)CN1, HATU/DIEA, DMF, 50.0 mM) was found to be 80%. This compound returned a ring closure, yield of all isomers (from COC(=O)[C@@H]1C[C@@H](Oc2nc3ccccc3c(OCc3ccccc3)c2C#CCCC[C@@H]2C[C@H]2OC(=O)N[C@H](C(=O)O)C2Cc3ccccc3C2)CN1, amide bond, HATU, DMF, 50.0 mM, 25.0 °C, 2.0 h) of 80%.
Turning to `C=C[C@@H]1C[C@]1(NC(=O)[C@@H]1C[C@@H]2CN1C(=O)[C@H](C1CCCCC1)NC(=O)O[C@@H]1C[C@H]1CCCCCc1c(nc3ccccc3c1OCCCNC1CC(F)(F)C1)O2)C(=O)NS(=O)(=O)C1(C)CC1` [Example 243, (1aR,5S,8S,10R,22aR)-5-cyclohexyl-17-{3-[(3,3-difluorocyclobutyl)amino]propoxy}-N-[(1R,2S)-2-ethenyl-1-{[(1-methylcyclopropyl)sulfonyl]carbamoyl}cyclopropyl]-3,6-dioxo-1,1a,3,4,5,6,9,10,18,19,20,21,22,22a-tetradecahydro-8H-7,10-methanocyclopropa[18,19][1,10,3,6]dioxadiazacyclononadecino[11,12-b]quinoline-8-carboxamide], the Ki in data set [2] (first of two values printed in the cell (not explained)) worked out at 0.033 nM; in data set [2] (second of two values printed in the cell (not explained)) it was 0.275 nM; in data set [3], 3.31 nM.

For orientation: Ki means a dissociation constant, usually derived from enzyme kinetics or from competition with a known ligand. High values mean lower affinity, low ones higher affinity.
